Numbers after ± are expanded uncertainties.
Legend:
[1] = Liquid; Ebulliometric method (Recirculating still)
[2] = refractive index (Na D-line) (dimensionless); conditions: 293.15 K; 101.33 kPa; Liquid; Standard Abbe refractometry

Normal boiling temperature [1]	refractive index [2]	Structure (SMILES)
78.40 ± 0.2 °C	1.3608 ± 0.0009	CCO [ethanol]
99.10 ± 0.2 °C	1.3839 ± 0.0005	CCOC(=O)CC [ethyl propanoate]
141.20 ± 0.2 °C	1.3872 ± 0.0008	CCC(=O)O [propanoic acid]
100.00 ± 0.2 °C	1.333 ± 0.0005	O [water]

From the NIST ThermoML archive (doi:10.1016/j.jct.2018.12.026)
